Experimental data reported in PMC10482975 (Nature Communications, 2023).
Where two headings read alike, the source gives them in different places.

Assays:
M4 mAChR [1] = target: T1, M4 mAChR (Homo sapiens, UniProt P08173)
T1 sequence (P08173 1-479): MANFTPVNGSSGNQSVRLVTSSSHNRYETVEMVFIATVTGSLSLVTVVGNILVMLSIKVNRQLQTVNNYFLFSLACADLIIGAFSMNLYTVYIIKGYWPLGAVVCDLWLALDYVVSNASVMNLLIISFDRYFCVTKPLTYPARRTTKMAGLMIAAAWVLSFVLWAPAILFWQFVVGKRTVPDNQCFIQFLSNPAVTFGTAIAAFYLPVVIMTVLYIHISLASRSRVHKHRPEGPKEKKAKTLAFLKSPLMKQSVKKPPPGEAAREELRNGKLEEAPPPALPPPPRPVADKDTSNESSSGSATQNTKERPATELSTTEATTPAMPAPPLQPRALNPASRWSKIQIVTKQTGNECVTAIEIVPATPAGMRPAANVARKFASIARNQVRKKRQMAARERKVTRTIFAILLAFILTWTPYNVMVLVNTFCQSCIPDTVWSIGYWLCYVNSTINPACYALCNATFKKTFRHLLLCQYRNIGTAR

M4 mAChR [2] = target: T1, M4 mAChR; assay: biochemical; settings: read-out: [3H]-NMS binding remaining (0 min = 100), MEAN, M4 mAChR; for remaining activity at 0.1 µM: 0.1 μM Xano alone; for remaining activity at 1 µM: 1 μM Xano alone; for remaining activity at 10 µM: 10 μM Xano alone

SMILES: CCCCCCOc1nsnc1C1=CCCN(C)C1 [xanomeline]
- rebinding of [3H]-NMS (in words) (M4 mAChR [1]; 10 µM xanomeline alone): prevented the rebinding
- [3H]-NMS dissociation (in words) (M4 mAChR [1]; 100 µM xanomeline alone): slowed to the same extent
- remaining activity at 0.1 µM (M4 mAChR [2]; 0.5 h, 30 min): 90.3%
- remaining activity at 1 µM (M4 mAChR [2]; 0.5 h, 30 min): 87.3%
- remaining activity at 100 µM (M4 mAChR [2]; 0.5 h, 10 μM Atropine + 100 μM Xanomeline, 30 min): 85.1%
- remaining activity at 10 µM (M4 mAChR [2]; 0.5 h, 30 min): 77.6%
- remaining activity at 100 µM (M4 mAChR [2]; 0.5 h, 100 μM Xano alone, 30 min): 85.7%
- remaining activity at 0.1 µM (M4 mAChR [2]; 1 h, 60 min): 94.4%
- remaining activity at 1 µM (M4 mAChR [2]; 1 h, 60 min): 76.8%
- remaining activity at 100 µM (M4 mAChR [2]; 1 h, 10 μM Atropine + 100 μM Xanomeline, 60 min): 69.6%
- remaining activity at 10 µM (M4 mAChR [2]; 1 h, 60 min): 61%
- remaining activity at 100 µM (M4 mAChR [2]; 1 h, 100 μM Xano alone, 60 min): 73.5%
- remaining activity at 0.1 µM (M4 mAChR [2]; 1.5 h, 90 min): 98.4%
- remaining activity at 1 µM (M4 mAChR [2]; 1.5 h, 90 min): 74.4%
- remaining activity at 100 µM (M4 mAChR [2]; 1.5 h, 10 μM Atropine + 100 μM Xanomeline, 90 min): 64.1%
- remaining activity at 10 µM (M4 mAChR [2]; 1.5 h, 90 min): 50.9%
- remaining activity at 100 µM (M4 mAChR [2]; 1.5 h, 100 μM Xano alone, 90 min): 62.6%
- remaining activity at 0.1 µM (M4 mAChR [2]; 2 h, 120 min): 94.7%
- remaining activity at 1 µM (M4 mAChR [2]; 2 h, 120 min): 64.9%
- remaining activity at 100 µM (M4 mAChR [2]; 2 h, 10 μM Atropine + 100 μM Xanomeline, 120 min): 52.9%
- remaining activity at 100 µM (M4 mAChR [2]; 2 h, 100 μM Xano alone, 120 min): 61.2%
- remaining activity at 0.1 µM (M4 mAChR [2]; 3 h, 180 min): 92.1%
- remaining activity at 1 µM (M4 mAChR [2]; 3 h, 180 min): 60.5%
- remaining activity at 10 µM (M4 mAChR [2]; 3 h, 180 min): 32.7%
- remaining activity at 100 µM (M4 mAChR [2]; 3 h, 100 μM Xano alone, 180 min): 46.6%
- remaining activity at 0.1 µM (M4 mAChR [2]; 5 h, 300 min): 89.8%
- remaining activity at 1 µM (M4 mAChR [2]; 5 h, 300 min): 57.5%
- remaining activity at 100 µM (M4 mAChR [2]; 5 h, 10 μM Atropine + 100 μM Xanomeline, 300 min): 26.7%
- remaining activity at 10 µM (M4 mAChR [2]; 5 h, 300 min): 17.9%
- remaining activity at 100 µM (M4 mAChR [2]; 5 h, 100 μM Xano alone, 300 min): 34.6%
